Source: patent publication US6924302B2, “Substituted triazole diamine derivatives as kinase inhibitors” (Ortho McNeil Pharmaceutical, Inc., priority 2000, dated 2005)
Like-named read-outs stand apart in the source and are kept apart here.

What was measured:
Assay type in all cases: biochemical
CDK1:Cyclin-B = target: T1, CDK1:Cyclin-B (Homo sapiens, UniProt P06493); experiment: CDK1 Screening Assay; conditions: read-out: CDK1 IC50
T1 construct: purchased New England Biolabs 6020; host or cells: insect cells
Outline: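 Human CDK1:cyclin-B (30 ng/well) with biotinylated histone-H1 peptide and ^33P-γ-ATP, 1 h at 30° C, 1% DMSO, on streptavidin FlashPlate; incorporation read by scintillation.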

Insulin Receptor Kinase = Insulin Receptor Kinase (Homo sapiens, UniProt P06213); experiment: Kinase Selectivity Assay Insulin Receptor Kinase; conditions: Kinase Selectivity, Tables 2a-2k; read-out: Insulin R Kinase IC50
Outline: (§1)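 Biotinylated peptide phosphorylation measured as ^33P-γ-ATP incorporation on streptavidin plates after 1 h at 30° C, 1% DMSO final, enzyme in 50 mM Tris-HCl pH 8.0, 0.1% BSA. Compounds in duplicate at 8 concentrations, 100 uM to 10 pM. IC50 from percent inhibition versus log concentration.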

[1] = target: T2, Casein Kinase 2 (alpha and beta subunits) (Homo sapiens, UniProt P68400); experiment: Kinase Selectivity Assay Casein Kinase 2; conditions: Kinase Selectivity, Tables 2a-2k; read-out: Caseine Kinase 2 IC50
T2 construct: purchased New England Biolabs 6010; host or cells: E. coli
Outline: as §1

[2] = target: T3, Calmodulin Kinase (calmodulin-dependent protein kinase 2) (Rattus norvegicus, UniProt P11275); experiment: Kinase Selectivity Assay Calmodulin Kinase; conditions: Kinase Selectivity, Tables 2a-2k; read-out: Calmodulin Kinase 2 IC50
T3 construct: a truncated version of the alpha subunit of the rat protein; purchased New England Biolabs 6060; host or cells: insect cells
Outline: as §1

[3] = Kinase Selectivity, Tables 2a-2k

T1 sequence (P06493 whole entry): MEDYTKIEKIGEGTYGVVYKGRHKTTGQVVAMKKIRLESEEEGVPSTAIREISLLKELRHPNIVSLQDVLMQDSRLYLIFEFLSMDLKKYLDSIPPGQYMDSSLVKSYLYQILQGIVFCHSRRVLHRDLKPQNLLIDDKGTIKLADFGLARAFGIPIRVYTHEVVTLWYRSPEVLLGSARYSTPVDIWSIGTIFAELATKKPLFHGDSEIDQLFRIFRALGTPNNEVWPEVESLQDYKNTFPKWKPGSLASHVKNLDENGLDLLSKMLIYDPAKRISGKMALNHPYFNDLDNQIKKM
T1 sequence (P14635 whole entry partner): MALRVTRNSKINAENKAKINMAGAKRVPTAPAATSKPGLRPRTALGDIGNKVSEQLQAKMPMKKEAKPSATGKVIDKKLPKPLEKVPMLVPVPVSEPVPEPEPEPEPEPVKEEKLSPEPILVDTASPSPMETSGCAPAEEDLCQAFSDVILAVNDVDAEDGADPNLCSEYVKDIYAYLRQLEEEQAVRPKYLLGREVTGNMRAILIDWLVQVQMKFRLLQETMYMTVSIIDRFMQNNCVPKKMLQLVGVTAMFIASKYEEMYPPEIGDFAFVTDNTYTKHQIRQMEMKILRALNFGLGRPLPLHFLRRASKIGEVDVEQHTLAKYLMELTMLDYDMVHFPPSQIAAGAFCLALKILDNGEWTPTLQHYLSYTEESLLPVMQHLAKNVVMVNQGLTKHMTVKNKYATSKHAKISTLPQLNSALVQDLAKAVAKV
T2 sequence (P68400 whole entry): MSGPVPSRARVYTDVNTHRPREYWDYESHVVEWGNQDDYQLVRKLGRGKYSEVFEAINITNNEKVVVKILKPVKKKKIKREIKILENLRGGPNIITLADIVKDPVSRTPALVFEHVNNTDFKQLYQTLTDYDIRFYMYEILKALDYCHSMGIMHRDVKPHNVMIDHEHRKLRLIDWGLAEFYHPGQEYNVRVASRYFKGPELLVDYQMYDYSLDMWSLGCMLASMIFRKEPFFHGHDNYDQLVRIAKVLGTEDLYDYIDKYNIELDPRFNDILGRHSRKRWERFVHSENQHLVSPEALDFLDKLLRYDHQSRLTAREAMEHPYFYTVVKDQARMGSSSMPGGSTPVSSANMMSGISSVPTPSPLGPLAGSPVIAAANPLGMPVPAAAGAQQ
T2 sequence (P67870 whole entry partner): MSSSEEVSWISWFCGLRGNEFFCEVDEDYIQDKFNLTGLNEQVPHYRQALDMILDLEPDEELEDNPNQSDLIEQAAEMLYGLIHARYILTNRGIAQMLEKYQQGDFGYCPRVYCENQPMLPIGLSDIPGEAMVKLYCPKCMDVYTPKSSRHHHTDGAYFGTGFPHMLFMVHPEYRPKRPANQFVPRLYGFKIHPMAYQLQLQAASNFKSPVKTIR
Chain of Insulin Receptor Kinase (P06213 980-1352): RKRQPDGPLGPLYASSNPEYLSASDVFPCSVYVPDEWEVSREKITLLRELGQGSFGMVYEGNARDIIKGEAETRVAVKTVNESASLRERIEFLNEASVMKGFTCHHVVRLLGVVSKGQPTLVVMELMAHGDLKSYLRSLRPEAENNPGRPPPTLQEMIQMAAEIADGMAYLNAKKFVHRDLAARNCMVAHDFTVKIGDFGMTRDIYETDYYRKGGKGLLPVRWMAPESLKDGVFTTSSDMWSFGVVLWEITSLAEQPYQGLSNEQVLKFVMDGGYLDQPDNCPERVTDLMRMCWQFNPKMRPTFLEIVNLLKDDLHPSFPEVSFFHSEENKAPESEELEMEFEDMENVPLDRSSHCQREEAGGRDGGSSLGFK

| Structure (SMILES) | IC50 (CDK1:Cyclin-B; [3]) [µM] | IC50 (CDK1:Cyclin-B; Table 1) [µM] | IC50 (Insulin Receptor Kinase) [µM] | IC50 [1] [µM] | IC50 [2] [µM] |
| --- | --- | --- | --- | --- | --- |
| Nc1nc(Nc2ccc(S(N)(=O)=O)cc2)nn1C(=O)c1c(F)cccc1F [Cpd 1, 4-[[5-amino-1-(2,6-difluorobenzoyl)-1H-1,2,4-triazol-3-yl]amino]-benzenesulfonamide] | 0.006 | 0.0064 | > 100 | > 100 | > 100 |
| Nc1nc(Nc2ccc(S(N)(=O)=O)cc2)nn1C(=O)c1cccs1 [Cpd 14, 4-[[5-amino-1-(2-thienylcarbonyl)-1H-1,2,4-triazol-3-yl]amino]-benzenesulfonamide] | 0.0045 | 0.0045 | 1.2 | 8.05 | 60.4 |
| Nc1nc(Nc2ccc(S(N)(=O)=O)cc2)nn1C(=O)c1sccc1F [Cpd 16, 4-[[5-amino-1-[(3-fluoro-2-thienyl)carbonyl]-1H-1,2,4-triazol-3-yl]amino]-benzenesulfonamide] | 0.021 | 0.0021 | > 100 | > 100 | > 100 |
| Nc1nc(Nc2ccc(S(N)(=O)=O)cc2)nn1C(=O)c1sccc1Cl [Cpd 17, 4-[[5-amino-1-[(3-chloro-2-thienyl)carbonyl]-1H-1,2,4-triazol-3-yl]amino]-benzenesulfonamide] | 0.0025 | 0.0025 | 2.02 | 2.65 | 2.8 |
| Nc1nc(Nc2ccc(S(=O)(=O)N3CCCCC3)cc2)nn1C(=O)c1cccs1 [Cpd 23, N^3-[4-(1-piperidinylsulfonyl)phenyl]-1-(2-thienylcarbonyl)-1H-1,2,4-triazole-3,5-diamine] | 0.089 | 0.0889 | > 100 | > 100 | 10.5 |
| Nc1nc(Nc2ccc(S(N)(=O)=O)cc2)nn1C(=O)c1ccsc1 [Cpd 30, 4-[[5-amino-1-(3-thienylcarbonyl)-1H-1,2,4-triazol-3-yl]amino]-benzenesulfonamide] | 0.017 | 0.017 | 4.96 | 7.6 | 88.3 |
| CCc1ccc(C(=O)n2nc(Nc3ccc(S(N)(=O)=O)cc3)nc2N)s1 [Cpd 32, 4-[[5-amino-1-[(5-ethyl-2-thienyl)carbonyl]-1H-1,2,4-triazol-3-yl]amino]-benzenesulfonamide] | 0.003 | 0.0031 | 0.123 | 0.527 | > 100 |
| Cc1nc(C)c(C(=O)n2nc(Nc3ccc(S(N)(=O)=O)cc3)nc2N)s1 [Cpd 34, 4-[[5-amino-1-[(2,4-dimethyl-5-thiazolyl)carbonyl]-1H-1,2,4-triazol-3-yl]amino]-benzenesulfonamide] | 0.002 | 0.0016 | > 10 | > 100 | > 100 |
| Nc1nc(Nc2ccc(S(N)(=O)=O)cc2)nn1C(=O)c1sccc1Br [Cpd 35, 4-[[5-amino-1-[(3-bromo-2-thienyl)carbonyl]-1H-1,2,4-triazol-3-yl]amino]-benzenesulfonamide] |  | 0.0011 |  |  |  |
| Nc1nc(Nc2ccc(S(N)(=O)=O)cc2)nn1C(=O)C1CCCC1 [Cpd 38, 4-[[5-amino-1-(cyclopentylcarbonyl)-1H-1,2,4-triazol-3-yl]amino]-benzenesulfonamide] |  |  | > 100 | > 100 | > 100 |
| Nc1nc(Nc2ccc(S(N)(=O)=O)cc2)nn1C(=O)C1CCCCC1 [Cpd 39, 4-[[5-amino-1-(cyclohexylcarbonyl)-1H-1,2,4-triazol-3-yl]amino]-benzenesulfonamide] |  |  | 19.4 | > 100 | > 100 |
| CC(C)(C)c1ccc(C(=O)n2nc(Nc3ccc(S(N)(=O)=O)cc3)nc2N)s1 [Cpd 51, 4-[[5-amino-1-[[5-(1,1-dimethylethyl)-2-thienyl]carbonyl]-1H-1,2,4-triazol-3-yl]amino]-benzenesulfonamide] | 0.007 | 0.007 | 0.077 | 1.78 | 0.813 |
| Cc1ccccc1C(=O)n1nc(Nc2ccc(S(N)(=O)=O)cc2)nc1N [Cpd 57, 4-[[5-amino-1-(2-methylbenzoyl)-1H-1,2,4-triazol-3-yl]amino]-benzenesulfonamide] | 0.067 | 0.067 | > 100 | > 100 | > 100 |
| CC(O)c1ccc(F)c(C(=O)n2nc(Nc3ccc(S(N)(=O)=O)cc3)nc2N)c1F (stereo not shown) [Cpd 58, 4-[[5-amino-1-[2,6-difluoro-3-(1-hydroxyethyl)benzoyl]-1H-1,2,4-triazol-3-yl]amino]-benzenesulfonamide] | 0.014 | 0.014 | > 100 | > 100 | > 100 |
| Cc1ccc(F)c(C(=O)n2nc(Nc3ccc(S(N)(=O)=O)cc3)nc2N)c1Cl [Cpd 69, 4-[[5-amino-1-(2-chloro-6-fluoro-3-methylbenzoyl)-1H-1,2,4-triazol-3-yl]amino]-benzenesulfonamide] | 0.023 | 0.023 | 45.1 | > 100 | > 100 |
| Nc1nc(Nc2ccc(S(N)(=O)=O)cc2)nn1C(=O)c1c(F)cccc1Cl [Cpd 70, 4-[[5-amino-1-(2-chloro-6-fluorobenzoyl)-1H-1,2,4-triazol-3-yl]amino]-benzenesulfonamide] | 0.035 | 0.035 | > 100 | > 100 | > 100 |
| CN1CCN(c2ccc(Nc3nc(N)n(C(=O)c4c(F)cccc4F)n3)cc2)CC1 [Cpd 71, 1-(2,6-difluorobenzoyl)-N^3-[4-(4-methyl-1-piperazinyl)phenyl]-1H-1,2,4-triazole-3,5-diamine] | 3.71 | 3.71 | 35.3 | > 100 | 60.9 |
| CNS(=O)(=O)c1ccc(Nc2nc(N)n(C(=O)c3c(F)cccc3F)n2)cc1 [Cpd 80, 4-[[5-amino-1-(2,6-difluorobenzoyl)-1H-1,2,4-triazol-3-yl]amino]-N-methyl-benzenesulfonamide] |  | 0.0452 |  |  |  |
| CNS(=O)(=O)c1ccc(Nc2nc(N)n(C(=O)c3c(F)ccc(C)c3F)n2)cc1 [Cpd 81, 4-[[5-amino-1-(2,6-difluoro-3-methylbenzoyl)-1H-1,2,4-triazol-3-yl]amino]-N-methyl-benzenesulfonamide] |  |  | 29.6 | > 100 | > 100 |
| CNS(=O)(=O)c1ccc(Nc2nc(N)n(C(=O)c3sccc3C)n2)cc1 [Cpd 82, 4-[[5-amino-1-[(3-methyl-2-thienyl)carbonyl]-1H-1,2,4-triazol-3-yl]amino]-N-methyl-benzenesulfonamide] | 0.009 | 0.009 | 1.1 | > 100 | > 100 |
| CCc1ccc(C(=O)n2nc(Nc3ccc(S(=O)(=O)NC)cc3)nc2N)s1 [Cpd 84, 4-[[5-amino-1-[(5-ethyl-2-thienyl)carbonyl]-1H-1,2,4-triazol-3-yl]amino]-N-methyl-benzenesulfonamide] | 0.004 | 0.0038 | 0.172 | 1.67 | > 100 |
| CCc1ccc(C(=O)n2nc(Nc3ccc(S(=O)(=O)NCCN(C)C)cc3)nc2N)s1 [Cpd 103, 4-[[5-amino-1-[(5-ethyl-2-thienyl)carbonyl]-1H-1,2,4-triazol-3-yl]amino]-N-[2-(dimethylamino)ethyl]-benzenesulfonamide] | 0.007 | 0.0074 | 0.123 | 5.3 | > 100 |
| Cc1ccsc1C(=O)n1nc(Nc2ccc(S(=O)(=O)NCCN(C)C)cc2)nc1N [Cpd 104, 4-[[5-amino-1-[(3-methyl-2-thienyl)carbonyl]-1H-1,2,4-triazol-3-yl]amino]-N-[2-(dimethylamino)ethyl]-benzenesulfonamide] | 0.0016 | 0.0156 | 2.09 | > 100 | > 10 |
| Cc1cc(C)c(C(=O)n2nc(Nc3ccc(NS(C)(=O)=O)cc3)nc2N)s1 [Cpd 108, N-[4-[[5-amino-1-[(3,5-dimethyl-2-thienyl)carbonyl]-1H-1,2,4-triazol-3-5 yl]amino]phenyl]-methanesulfonamide] | 0.066 | 0.0657 |  | > 10 | > 10 |
| Cc1ccsc1C(=O)n1nc(Nc2ccc(N3CCNC3=O)cc2)nc1N [Cpd 113, 1-[4-[[5-amino-1-[(3-methyl-2-thienyl)carbonyl]-1H-1,2,4-triazol-3-yl]amino]phenyl]-2-imidazolidinone] | 0.254 | 0.255 | > 10 | > 100 | > 10 |
| Cc1ccsc1C(=O)n1nc(Nc2ccc(N3CCCS3(=O)=O)cc2)nc1N [Cpd 116, N^3-[4-(1,1-dioxido-2-isothiazolidinyl)phenyl]-1-[(3-methyl-2-thienyl)carbonyl]-1H-1,2,4-triazole-3,5-diamine] | 0.021 | 0.0208 | > 100 | > 100 | > 100 |
| Nc1nc(Nc2ccc(N3CCCS3(=O)=O)cc2)nn1C(=O)c1c(F)cccc1F [Cpd 117] |  |  | > 100 | > 100 | > 100 |
